Active and inactive are the calls of the source. No cut-off for these calls is given here.
How the values were obtained:
[1] = biological target: T1, Cholecystokinin receptor type A (Homo sapiens, UniProt P32238); assay: Displacement of [125I]CCK-8(SO3) from human CCK1 receptor expressed in human HEK293 cells; type: cell-based
T1 sequence (P32238 whole entry): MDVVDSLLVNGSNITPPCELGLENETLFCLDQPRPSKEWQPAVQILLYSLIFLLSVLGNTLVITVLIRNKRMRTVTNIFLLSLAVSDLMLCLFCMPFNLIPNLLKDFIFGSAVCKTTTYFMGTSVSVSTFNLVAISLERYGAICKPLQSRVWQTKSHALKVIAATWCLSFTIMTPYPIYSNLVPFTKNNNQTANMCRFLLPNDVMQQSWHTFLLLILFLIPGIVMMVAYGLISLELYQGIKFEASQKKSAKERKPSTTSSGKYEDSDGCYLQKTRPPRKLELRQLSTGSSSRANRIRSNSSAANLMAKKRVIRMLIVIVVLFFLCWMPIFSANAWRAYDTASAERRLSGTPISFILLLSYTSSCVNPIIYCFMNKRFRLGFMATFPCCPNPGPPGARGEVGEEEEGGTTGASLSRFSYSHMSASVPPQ

[2] = biological target: T2, Gastrin/cholecystokinin type B receptor (Homo sapiens, UniProt P32239); assay: Displacement of [125I]CCK-8(SO3) from human CCK2 receptor expressed in human HEK293 cells; type: cell-based
T2 sequence (P32239 whole entry): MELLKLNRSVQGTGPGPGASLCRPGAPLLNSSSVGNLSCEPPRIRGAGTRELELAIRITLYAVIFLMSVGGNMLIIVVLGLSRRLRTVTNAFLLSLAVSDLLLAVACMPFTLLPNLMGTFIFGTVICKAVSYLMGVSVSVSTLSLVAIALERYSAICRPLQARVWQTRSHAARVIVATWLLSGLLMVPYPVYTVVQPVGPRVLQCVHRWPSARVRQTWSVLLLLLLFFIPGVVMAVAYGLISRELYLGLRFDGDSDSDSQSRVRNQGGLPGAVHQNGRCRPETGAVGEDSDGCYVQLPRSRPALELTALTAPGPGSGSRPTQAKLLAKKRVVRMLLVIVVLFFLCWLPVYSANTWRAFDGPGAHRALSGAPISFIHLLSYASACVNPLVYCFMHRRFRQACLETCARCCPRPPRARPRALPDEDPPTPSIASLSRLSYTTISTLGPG

[3] = […] activity at CCK receptor in Hartley guinea pig ileum longitudinal muscle with myenteric plexus assessed as inhibition of CCK8-stimulated muscle contraction; type: functional, Cavia porcellus
[4] = biological target: Mu-type opioid receptor (Cavia porcellus, UniProt P97266); assay: Agonist activity at mu opioid receptor in guinea pig ileum assessed as inhibition of electrically-stimulated muscle contraction; type: functional, tissue-based
[5] = Agonist activity at CCK receptor in Hartley guinea pig ileum longitudinal muscle with myenteric plexus assessed as inhibition of electrically-stimulated muscle contraction at 1 uM relative to KCl; type: functional, Cavia porcellus; set-up: scale not given: the % may be the effect or the level left
[6] = biological target: Melanocortin receptor 4 (Homo sapiens, UniProt P32245); assay: Displacement of Eu-NDP-alphaMSH from human MC4 receptor expressed in human HEK293 cells; type: cell-based
[7] = biological target: Mu-type opioid receptor (Rattus norvegicus, UniProt P33535); assay: Displacement of [3H]DAMGO from rat mu opioid receptor expressed in mouse HN9.10 cells; type: cell-based
[8] = biological target: Delta-type opioid receptor (Mus musculus, UniProt P32300); assay: Agonist activity at delta opioid receptor in mouse vas deferens assessed as inhibition of electrically-stimulated muscle contraction; type: functional, tissue-based
[9] = species on record: Cavia porcellus; assay: […] activity at CCK receptor in Hartley guinea pig ileum longitudinal muscle with myenteric plexus assessed as inhibition of CCK8-stimulated muscle contraction at 1 uM; type: functional, tissue-based
[10] = species on record: Homo sapiens; assay: Selectivity ratio of Ki for human CCK1 receptor to Ki for human CCk2 receptor
[11] = biological target: Delta-type opioid receptor (Homo sapiens, UniProt P41143); assay: Displacement of [3H]DPDPE from human delta opioid receptor expressed in mouse HN9.10 cells; type: cell-based
[12] = biological target: Delta-type opioid receptor (Mus musculus) (UniProt P32300); assay: Agonist activity at delta opioid receptor in mouse vas deferens assessed as inhibition of electrically-stimulated muscle contraction at 1 uM; type: functional, tissue-based; set-up: scale not given: the % may be the effect or the level left
[13] = biological target: Mu-type opioid receptor (Cavia porcellus) (UniProt P97266); assay: Agonist activity at mu opioid receptor in guinea pig ileum assessed as inhibition of electrically-stimulated muscle contraction at 1 uM; type: functional, tissue-based; set-up: scale not given: the % may be the effect or the level left
Chain of Mu-type opioid receptor (Cavia porcellus) (P97266 whole entry): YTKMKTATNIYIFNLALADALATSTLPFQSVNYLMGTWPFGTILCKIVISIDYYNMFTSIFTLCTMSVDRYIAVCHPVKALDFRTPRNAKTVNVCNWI

Chain of Mu-type opioid receptor (Cavia porcellus, UniProt P97266) (P97266 whole entry): as above
Chain of Delta-type opioid receptor (Homo sapiens, UniProt P41143) (P41143 whole entry): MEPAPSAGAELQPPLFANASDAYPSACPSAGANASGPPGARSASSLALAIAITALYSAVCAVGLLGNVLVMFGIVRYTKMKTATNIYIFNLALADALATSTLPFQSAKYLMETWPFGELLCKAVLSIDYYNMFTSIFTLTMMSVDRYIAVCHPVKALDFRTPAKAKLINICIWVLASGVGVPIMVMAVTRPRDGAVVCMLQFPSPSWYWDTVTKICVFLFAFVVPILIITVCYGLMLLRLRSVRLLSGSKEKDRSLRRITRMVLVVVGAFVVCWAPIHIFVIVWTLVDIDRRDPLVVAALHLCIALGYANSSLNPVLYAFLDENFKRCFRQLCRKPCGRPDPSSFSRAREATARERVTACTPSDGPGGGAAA
Chain of Melanocortin receptor 4 (P32245 whole entry): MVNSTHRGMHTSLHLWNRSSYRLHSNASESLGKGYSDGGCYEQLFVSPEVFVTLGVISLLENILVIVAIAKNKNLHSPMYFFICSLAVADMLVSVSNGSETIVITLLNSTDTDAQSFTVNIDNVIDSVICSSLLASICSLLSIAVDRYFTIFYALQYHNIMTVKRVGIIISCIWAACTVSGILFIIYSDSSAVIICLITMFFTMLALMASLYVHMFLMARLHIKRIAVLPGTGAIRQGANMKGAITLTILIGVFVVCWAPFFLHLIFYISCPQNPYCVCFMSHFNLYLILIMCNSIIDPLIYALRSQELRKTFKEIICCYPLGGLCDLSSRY
Chain of Mu-type opioid receptor (Rattus norvegicus, UniProt P33535) (P33535 whole entry): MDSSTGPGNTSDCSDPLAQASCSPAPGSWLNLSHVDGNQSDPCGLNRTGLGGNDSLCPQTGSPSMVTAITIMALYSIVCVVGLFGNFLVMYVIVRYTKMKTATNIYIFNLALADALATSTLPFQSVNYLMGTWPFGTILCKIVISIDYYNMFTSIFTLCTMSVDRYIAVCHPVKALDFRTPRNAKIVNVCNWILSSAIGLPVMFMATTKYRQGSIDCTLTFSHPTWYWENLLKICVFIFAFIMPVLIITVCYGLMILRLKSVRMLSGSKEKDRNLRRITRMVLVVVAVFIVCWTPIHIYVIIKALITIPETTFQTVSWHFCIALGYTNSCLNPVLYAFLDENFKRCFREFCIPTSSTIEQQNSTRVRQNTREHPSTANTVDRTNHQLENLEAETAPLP
Chain of Delta-type opioid receptor (Mus musculus, UniProt P32300) (P32300 whole entry): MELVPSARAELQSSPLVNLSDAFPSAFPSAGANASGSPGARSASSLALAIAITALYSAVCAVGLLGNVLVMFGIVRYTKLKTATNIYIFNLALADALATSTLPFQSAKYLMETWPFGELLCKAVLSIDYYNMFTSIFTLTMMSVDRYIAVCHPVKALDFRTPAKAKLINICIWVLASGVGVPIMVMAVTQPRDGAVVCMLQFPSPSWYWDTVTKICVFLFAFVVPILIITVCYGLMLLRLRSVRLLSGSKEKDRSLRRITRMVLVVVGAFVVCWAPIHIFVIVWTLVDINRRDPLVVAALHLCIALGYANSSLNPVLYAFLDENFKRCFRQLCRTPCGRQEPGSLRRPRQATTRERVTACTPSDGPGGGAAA
Chain of Delta-type opioid receptor (Mus musculus) (P32300 whole entry): as above

Row | Compound | IC50 [1] [nM] | Ki ([1]; read-out: Ki) [nM] | IC50 [2] [nM] | Ki ([2]; read-out: Ki) [nM] | Ke [3] [nM] | IC50 [4] [nM] | Activity [5] [%] | IC50 [6] [nM] | IC50 [7] [nM] | Ki [7] [nM] | IC50 [8] [nM] | Ke [9] | Ratio Ki [10] | IC50 [11] [nM] | Ki [11] [nM] | Ki ([1]; hek293) | Ki ([2]; hek293) | Activity [12] [%] | Activity [13] [%]
1 | CCCC[C@H](NC(=O)[C@H](Cc1c[nH]c2ccccc12)NC(=O)[C@H](CCCNC(=N)N)NC(=O)[C@@H](Cc1ccc2ccccc2c1)NC(=O)[C@H](Cc1cnc[nH]1)NC(=O)[C@H](Cc1ccccc1)NC(=O)CNC(=O)[C@@H](C)NC(=O)[C@@H](N)Cc1c(C)cc(O)cc1C)C(=O)N[C@@H](CC(=O)O)C(=O)N[C@@H](Cc1ccccc1)C(N)=O | 20 | 18 | 126 | 110 | 940 | 8.3 | 0 | 160 | 0.251 | 0.13 | 11 |  |  |  |  |  |  |  | 
2 | CCCC[C@H](NC(=O)[C@H](Cc1c[nH]c2ccccc12)NC(=O)[C@H](CCCNC(=N)N)NC(=O)[C@@H](Cc1ccc2ccccc2c1)NC(=O)[C@H](Cc1cnc[nH]1)NC(=O)[C@H]1Cc2ccccc2CN1C(=O)[C@@H](N)Cc1c(C)cc(O)cc1C)C(=O)N[C@@H](CC(=O)O)C(=O)N[C@@H](Cc1ccccc1)C(N)=O |  |  |  |  |  |  | 0 |  |  |  |  | inactive |  |  |  |  |  |  | 
3 | CCCC[C@H](NC(=O)[C@H](Cc1c[nH]c2ccccc12)NC(=O)[C@H](CCCNC(=N)N)NC(=O)[C@@H](Cc1ccc2ccccc2c1)NC(=O)[C@H](Cc1cnc[nH]1)NC(=O)[C@H](Cc1ccccc1)NC(=O)CNC(=O)[C@@H](C)NC(=O)[C@@H](N)Cc1ccc(O)cc1)C(=O)N[C@@H](CC(=O)O)C(=O)N[C@@H](Cc1ccccc1)C(N)=O | 10 | 9 | 126 | 120 |  | 200 | 0 | 260 | 1.26 | 0.69 | 60 | inactive | 0.075 | 6.31 | 2.9 |  |  |  | 
4 | CCCC[C@H](NC(=O)[C@H](Cc1c[nH]c2ccccc12)NC(=O)[C@H](CCCN=C(N)N)NC(=O)[C@@H](Cc1ccc2ccccc2c1)NC(=O)[C@H](Cc1cnc[nH]1)NC(=O)[C@H]1Cc2ccccc2CN1C(=O)[C@@H](N)Cc1c(C)cc(O)cc1C)C(=O)N[C@@H](CC(=O)O)C(=O)N[C@@H](Cc1ccccc1)C(N)=O | 31.6 | 32 | 126 | 100 |  | 570 |  | 160 | 39.8 | 18 | 130 |  |  | 12.6 | 6.2 |  |  |  | 
5 | CCCC[C@H](NC(=O)[C@H](Cc1c[nH]c2ccccc12)NC(=O)[C@H](CCCNC(=N)N)NC(=O)[C@@H](Cc1ccc2ccccc2c1)NC(=O)[C@H](Cc1cnc[nH]1)NC(=O)[C@H](Cc1ccccc1)NC(=O)[C@@H](C)NC(=O)[C@@H](N)Cc1ccc(O)cc1)C(=O)N[C@@H](CC(=O)O)C(=O)N[C@@H](Cc1ccccc1)C(N)=O | 1.58 | 1.6 | 200 | 190 |  | 2300 | 0 | 700 | 501 | 250 | 370 | inactive | 119 | 79.4 | 42 |  |  |  | 
6 | Cc1cc(O)cc(C)c1C[C@H](N)C(=O)N1CC(=O)N[C@@H](Cc2cnc[nH]2)C(=O)N[C@H](Cc2ccc3ccccc3c2)C(=O)N[C@@H](CCCNC(=N)N)C(=O)N[C@@H](Cc2c[nH]c3ccccc23)C(=O)N[C@H](C(=O)N[C@@H](CC(=O)O)C(=O)N[C@@H](Cc2ccccc2)C(N)=O)CSSC[C@@H](N)C1=O |  |  |  |  |  | 280 | 0 | 440 | 12.6 | 5.9 | 610 | inactive |  | 12.6 | 5.6 | Not Active | Not Active |  | 
7 | N=C(N)NCCC[C@@H]1NC(=O)[C@H](Cc2ccc(Cl)cc2)NC(=O)[C@H](Cc2cnc[nH]2)NC(=O)CNC(=O)[C@H](NC(=O)[C@@H](N)Cc2ccc(O)cc2)CC(=O)NCCCC[C@@H](C(=O)N[C@@H](CC(=O)O)C(=O)N[C@H](Cc2ccccc2)C(N)=O)NC(=O)[C@H](Cc2cc3ccccc3[nH]2)NC1=O | 126 | 560 | 1000 | 930 |  |  | 0 | 32 | 3980 | 2100 |  | inactive |  | 2510 | 1300 |  |  | 16 | 0
8 | C[C@@H](NC(=O)[C@@H](N)Cc1ccc(O)cc1)C(=O)NCC(=O)N[C@@H](Cc1ccccc1)C(=O)NCCCC[C@H](NC(=O)[C@H](Cc1c[nH]c2ccccc12)NC(=O)[C@H](CCCNC(=N)N)NC(=O)[C@@H](Cc1ccc(Cl)cc1)NC(=O)[C@@H](N)Cc1cnc[nH]1)C(=O)N[C@@H](CC(=O)O)C(=O)N[C@@H](Cc1ccccc1)C(N)=O |  |  |  |  |  |  | 0 |  |  |  |  | inactive |  |  |  | Not Active | Not Active |  | 

From ChEMBL document CHEMBL1177813, “Design and synthesis of trivalent ligands targeting opioid, cholecystokinin, and melanocortin receptors for the treatment of pain” (Bioorg Med Chem Lett, 2010)
